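Interpolation was linear, between the two tested concentrations surrounding the appropriate level; five concentrations were tested over 48 hours in 96-well plates. GI50: concentration for 50% inhibition of growth.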 Calls of active or inactive are those of the source. Rule as the data show it: active = GI50 up to about 1.1 µM and inactive = higher.
Key:
Test in all cases: NCI tumour cell line growth inhibition, 48 h
[1] = system: NCI-H226
[2] = system: SF-268
[3] = system: UACC-257
[4] = system: SNB-19
[5] = system: MDA-N
[6] = system: ACHN
[7] = system: SW-620
[8] = system: CAKI-1
[9] = system: MDA-MB-231
[10] = system: NCI-H522
[11] = system: SK-MEL-28
[12] = system: COLO 205
[13] = system: HL-60
[14] = system: HCC 2998
[15] = system: DU-145
[16] = system: SF-539
[17] = system: SK-OV-3
[18] = system: 786-0
[19] = system: TK-10
[20] = system: A498
[21] = system: MCF7
[22] = system: T47D
[23] = system: RXF 393
[24] = system: Hs-578T
[25] = system: RPMI-8226
[26] = system: K562
[27] = system: LOX IMVI
[28] = system: UO-31
[29] = system: HT-29
[30] = system: U-251
[31] = system: OVCAR-5
[32] = system: SNB-75
[33] = system: OVCAR-8
[34] = system: IGROV-1
[35] = system: HOP-92
[36] = system: HCT-15
[37] = system: NCI-H23
[38] = system: M14
[39] = system: SN12C
[40] = system: Malme-3M
[41] = system: EKVX
[42] = system: MOLT-4
[43] = system: OVCAR-4
[44] = system: CCRF-CEM
[45] = system: MDA-MB-435
[46] = system: SK-MEL-5
[47] = system: A549
[48] = system: KM12
[49] = system: SF-295
[50] = system: HCT-116
[51] = system: NCI/ADR-RES
[52] = system: SR
[53] = system: UACC-62
[54] = system: HOP-62
[55] = system: OVCAR-3
[56] = system: PC-3
[57] = system: NCI-H460
[58] = system: SK-MEL-2

Measured: GI50

OCCC/N=C1N=C(Cl)/C(=C\c2ccccc2)N\1
inactive: [1] > 100 µM | [2] > 100 µM | [3] > 100 µM | [4] > 100 µM | [5] > 100 µM | [6] > 100 µM | [7] > 100 µM | [8] > 100 µM | [9] > 100 µM | [10] > 100 µM | [11] > 100 µM | [12] > 100 µM | [13] > 100 µM | [14] > 100 µM | [15] > 100 µM | [16] > 100 µM | [17] > 100 µM | [18] > 100 µM | [19] > 100 µM | [20] > 100 µM | [21] > 100 µM | [22] > 100 µM | [23] > 100 µM | [24] > 100 µM | [25] > 100 µM | [26] > 100 µM | [27] > 100 µM | [28] > 100 µM | [29] > 100 µM | [30] > 100 µM | [31] > 100 µM | [32] > 100 µM | [33] > 100 µM | [34] > 100 µM | [35] > 100 µM | [37] > 100 µM | [38] > 100 µM | [39] > 100 µM | [40] > 100 µM | [41] > 100 µM | [42] > 100 µM | [43] > 100 µM | [44] > 100 µM | [45] > 100 µM | [46] > 100 µM | [47] > 100 µM | [48] > 100 µM | [49] > 100 µM | [50] > 100 µM | [51] > 100 µM | [52] > 100 µM
> 100 µM: [36]

CCCCCOP(=O)(OCCCCC)C(NC(C)=O)(C(=O)OCC)C(F)(F)F (stereo not given)
inactive: [2] > 100 µM | [5] > 100 µM | [6] > 100 µM | [9] > 100 µM | [10] > 100 µM | [11] > 100 µM | [13] > 100 µM | [14] > 100 µM | [15] > 100 µM | [16] > 100 µM | [17] > 100 µM | [20] > 100 µM | [21] > 100 µM | [22] > 100 µM | [25] > 100 µM | [26] > 100 µM | [28] > 100 µM | [29] > 100 µM | [30] > 100 µM | [32] > 100 µM | [38] > 100 µM | [39] > 100 µM | [40] > 100 µM | [41] > 100 µM | [42] > 100 µM | [53] > 100 µM | [44] > 100 µM | [54] > 100 µM | [45] > 100 µM | [50] > 100 µM | [52] > 100 µM
> 100 µM: [36]

CC(C)(C)Nc1noc(=O)n1C(C)(C)C
> 100 µM: [36]
inactive: [1] > 100 µM | [2] > 100 µM | [3] > 100 µM | [4] > 100 µM | [5] > 100 µM | [6] > 100 µM | [7] > 100 µM | [8] > 100 µM | [55] > 100 µM | [9] > 100 µM | [10] > 100 µM | [11] > 100 µM | [56] > 100 µM | [12] > 100 µM | [13] > 100 µM | [15] > 100 µM | [16] > 100 µM | [17] > 100 µM | [18] > 100 µM | [19] > 100 µM | [20] > 100 µM | [21] > 100 µM | [23] > 100 µM | [57] > 100 µM | [24] > 100 µM | [25] > 100 µM | [26] > 100 µM | [27] > 100 µM | [28] > 100 µM | [29] > 100 µM | [30] > 100 µM | [31] > 100 µM | [32] > 100 µM | [33] > 100 µM | [34] > 100 µM | [35] > 100 µM | [37] > 100 µM | [38] > 100 µM | [39] > 100 µM | [40] > 100 µM | [41] > 100 µM | [42] > 100 µM | [53] > 100 µM | [43] > 100 µM | [44] > 100 µM | [54] > 100 µM | [45] > 100 µM | [58] > 100 µM | [46] > 100 µM | [47] > 100 µM | [48] > 100 µM | [49] > 100 µM | [50] > 100 µM | [51] > 100 µM | [52] > 100 µM

Source: ChEMBL document CHEMBL1201862, “PubChem BioAssay data set” (2004)
